Reference: ChEMBL document CHEMBL1909046, “DrugMatrix in vitro pharmacology data”

Legend:
[1] = DRUGMATRIX: Sodium/nucleoside co-transporter radioligand binding (ligand: nitrobenzylthioinosine); format: cell membranes, Cavia porcellus, Dunkin-Hartley, Cerebral cortex, Membrane; conditions: Not Active = under 50% inhibition at 10 µM
[2] = target: T1, Alpha-1D adrenergic receptor (Homo sapiens, UniProt P25100); format: cell membranes, HEK293, Membrane; conditions: for Ki: read-out: Ki; on all read-outs here: in other assays of this panel Not Active means under 50% inhibition at 10 µM
T1 sequence (P25100 whole entry): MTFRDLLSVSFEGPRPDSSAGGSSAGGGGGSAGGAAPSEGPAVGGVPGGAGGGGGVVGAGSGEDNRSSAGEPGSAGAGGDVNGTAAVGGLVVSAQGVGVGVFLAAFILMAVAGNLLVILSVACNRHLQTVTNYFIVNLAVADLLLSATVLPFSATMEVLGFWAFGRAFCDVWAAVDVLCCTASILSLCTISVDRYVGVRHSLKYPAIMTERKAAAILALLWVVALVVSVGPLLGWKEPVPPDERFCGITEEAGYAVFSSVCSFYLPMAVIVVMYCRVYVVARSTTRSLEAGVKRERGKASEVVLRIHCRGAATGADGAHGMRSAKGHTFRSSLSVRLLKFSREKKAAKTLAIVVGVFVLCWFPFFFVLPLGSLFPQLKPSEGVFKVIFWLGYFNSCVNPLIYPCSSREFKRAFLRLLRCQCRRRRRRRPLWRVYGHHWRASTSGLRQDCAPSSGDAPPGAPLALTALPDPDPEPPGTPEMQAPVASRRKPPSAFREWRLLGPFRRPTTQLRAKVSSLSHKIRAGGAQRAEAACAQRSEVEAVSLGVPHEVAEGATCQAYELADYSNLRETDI

[3] = target: Melanocortin receptor 5 (Homo sapiens, UniProt P33032); format: cell membranes, HEK293, Membrane; conditions: hek293; further: in other assays of this panel Not Active means under 50% inhibition at 10 µM
[4] = target: T2, 5-hydroxytryptamine receptor 2C (Homo sapiens, UniProt P28335); experiment: DRUGMATRIX: Serotonin (5-Hydroxytryptamine) 5-HT2C radioligand binding (ligand: [3H] Mesulergine); format: cell membranes, CHO-K1, Membrane; conditions: Not Active = under 50% inhibition at 10 µM; for Ki: read-out: Ki
T2 sequence (P28335 whole entry): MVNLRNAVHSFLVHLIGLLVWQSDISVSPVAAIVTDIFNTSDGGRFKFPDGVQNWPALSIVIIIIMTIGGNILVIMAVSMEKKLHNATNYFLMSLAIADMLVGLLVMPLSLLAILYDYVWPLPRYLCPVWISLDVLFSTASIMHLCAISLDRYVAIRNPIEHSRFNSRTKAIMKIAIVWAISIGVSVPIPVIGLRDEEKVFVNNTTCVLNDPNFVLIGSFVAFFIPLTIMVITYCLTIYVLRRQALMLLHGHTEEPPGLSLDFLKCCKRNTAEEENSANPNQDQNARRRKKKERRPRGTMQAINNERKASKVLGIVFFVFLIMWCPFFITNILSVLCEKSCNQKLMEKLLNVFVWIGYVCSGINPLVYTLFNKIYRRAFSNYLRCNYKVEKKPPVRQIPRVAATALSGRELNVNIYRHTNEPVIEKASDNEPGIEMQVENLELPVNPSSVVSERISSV

[5] = target: Vasopressin V1a receptor (Homo sapiens, UniProt P37288); format: cell membranes, Membrane; conditions: hek293; further: in other assays of this panel Not Active means under 50% inhibition at 10 µM
[6] = target: T3, Alpha-2C adrenergic receptor (Homo sapiens, UniProt P18825); experiment: DRUGMATRIX: Adrenergic Alpha-2C radioligand binding (ligand: [3H] MK-912); format: cell membranes, Sf9, Membrane; conditions: sf9
T3 sequence (P18825 whole entry): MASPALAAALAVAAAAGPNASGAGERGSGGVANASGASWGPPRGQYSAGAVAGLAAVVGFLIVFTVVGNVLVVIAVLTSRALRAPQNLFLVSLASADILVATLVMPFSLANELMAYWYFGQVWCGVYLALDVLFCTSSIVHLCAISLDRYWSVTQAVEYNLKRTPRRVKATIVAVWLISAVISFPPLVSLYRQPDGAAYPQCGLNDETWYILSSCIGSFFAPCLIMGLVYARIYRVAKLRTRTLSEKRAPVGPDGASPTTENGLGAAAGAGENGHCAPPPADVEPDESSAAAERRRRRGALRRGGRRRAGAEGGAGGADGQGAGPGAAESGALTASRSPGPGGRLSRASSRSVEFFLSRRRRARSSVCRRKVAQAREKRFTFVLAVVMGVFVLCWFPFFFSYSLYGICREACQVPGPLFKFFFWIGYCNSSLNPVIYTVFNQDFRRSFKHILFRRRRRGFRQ

Chain of Vasopressin V1a receptor (P37288 whole entry): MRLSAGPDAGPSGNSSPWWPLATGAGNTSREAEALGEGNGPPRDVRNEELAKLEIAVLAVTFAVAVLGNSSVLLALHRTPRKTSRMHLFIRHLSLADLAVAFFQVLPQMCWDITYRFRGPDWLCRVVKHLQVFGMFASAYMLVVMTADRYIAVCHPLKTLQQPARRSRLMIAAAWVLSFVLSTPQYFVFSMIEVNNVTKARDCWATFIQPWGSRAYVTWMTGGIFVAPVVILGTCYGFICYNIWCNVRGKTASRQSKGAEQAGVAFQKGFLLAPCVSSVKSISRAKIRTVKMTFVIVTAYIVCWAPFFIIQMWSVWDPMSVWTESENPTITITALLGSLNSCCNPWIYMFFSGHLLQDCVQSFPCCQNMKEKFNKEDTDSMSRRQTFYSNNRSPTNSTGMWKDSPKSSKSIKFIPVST
Chain of Melanocortin receptor 5 (P33032 whole entry): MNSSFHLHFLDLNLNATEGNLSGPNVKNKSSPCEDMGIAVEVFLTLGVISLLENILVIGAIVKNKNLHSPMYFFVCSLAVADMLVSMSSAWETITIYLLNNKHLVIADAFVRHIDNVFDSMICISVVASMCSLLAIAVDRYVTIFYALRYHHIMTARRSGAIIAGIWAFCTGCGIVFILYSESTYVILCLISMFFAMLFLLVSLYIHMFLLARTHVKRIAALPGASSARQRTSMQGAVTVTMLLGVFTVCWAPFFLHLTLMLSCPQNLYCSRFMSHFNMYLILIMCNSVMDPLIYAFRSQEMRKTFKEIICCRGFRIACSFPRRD

Row | SMILES | IC50 [1] | Ki [1] | IC50 ([2]; hek293) | IC50 [3] | IC50 ([4]; cho-k1) | IC50 [5] | IC50 [6] | IC50 ([2]; read-out: IC50) [nM] | Ki [2] [nM] | IC50 ([4]; read-out: IC50) [nM] | Ki [4] [nM]
1 | CC1=NN(c2ccccc2)C(=O)C1 [EDARAVONE] | Not Active | Not Active | Not Active | Not Active | Not Active | Not Active | Not Active | – | – | – | –
2 | CCCNC(C)C(=O)Nc1ccccc1C (stereo not given) [PRILOCAINE] | Not Active | Not Active | Not Active | Not Active | Not Active | Not Active | Not Active | – | – | – | –
3 | C[C@@H]1C/C=C/C=C/C=C/C=C/[C@H](O[C@@H]2O[C@H](C)[C@@H](O)[C@H](N)[C@@H]2O)C[C@@H]2O[C@](O)(C[C@@H](O)C[C@H]3O[C@@H]3/C=C/C(=O)O1)C[C@H](O)[C@H]2C(=O)O [NATAMYCIN] | Not Active | Not Active | Not Active | Not Active | Not Active | Not Active | Not Active | – | – | – | –
4 | C[C@H]1O[C@H](O[C@H]2[C@H](O)[C@@H](O)[C@@H](O[C@H]3[C@H](O)[C@@H](O)C(O)O[C@@H]3CO)O[C@@H]2CO)[C@H](O)[C@@H](O)[C@@H]1N[C@H]1C=C(CO)[C@@H](O)[C@H](O)[C@H]1O (stereo not given in full) [ACARBOSE] | Not Active | Not Active | Not Active | Not Active | Not Active | Not Active | Not Active | – | – | – | –
5 | CN(C)C(=N)NC(=N)N [METFORMIN] | Not Active | Not Active | Not Active | Not Active | Not Active | Not Active | Not Active | – | – | – | –
6 | CCc1ccc(CCOc2ccc(CC3SC(=O)NC3=O)cc2)nc1 (stereo not given) [PIOGLITAZONE] | Not Active | Not Active | Not Active | Not Active | Not Active | Not Active | Not Active | – | – | – | –
7 | CN1CCN(C(c2ccccc2)c2ccccc2)CC1 [CYCLIZINE] | Not Active | Not Active | – | Not Active | – | Not Active | Not Active | 1210 | 597 | 1020 | 535
8 | Cn1c(=O)c2c(ncn2C)n(C)c1=O [CAFFEINE] | Not Active | Not Active | Not Active | Not Active | Not Active | Not Active | Not Active | – | – | – | –
9 | COc1cc(OC)c(C(=O)CCCN2CCCC2)c(OC)c1 [BUFLOMEDIL] | Not Active | Not Active | Not Active | Not Active | Not Active | Not Active | Not Active | – | – | – | –
10 | C[C@]12CC[C@H]3[C@@H](CCC4=CC(=O)CC[C@@H]43)[C@@H]1CC[C@@H]2O [NANDROLONE] | Not Active | Not Active | Not Active | Not Active | Not Active | Not Active | Not Active | – | – | – | –
11 | CS(=O)(=O)Nc1ccc([N+](=O)[O-])cc1Oc1ccccc1 [NIMESULIDE] | Not Active | Not Active | Not Active | Not Active | Not Active | Not Active | Not Active | – | – | – | –
12 | CN1CCC(=C2c3ccccc3CC(=O)c3sccc32)CC1 [KETOTIFEN] | Not Active | Not Active | – | Not Active | – | Not Active | Not Active | 3730 | 1830 | 160 | 84
13 | NC12CC3CC(CC(C3)C1)C2 [AMANTADINE] | Not Active | Not Active | Not Active | Not Active | Not Active | Not Active | Not Active | – | – | – | –
